From patent US12264128B1, “Acid as an antioxidant compound” (KING FAISAL UNIVERSITY, priority 2023, dated 2025) come the findings set out here.

This experiment in a line: DPPH radical scavenging antioxidant test. The conditions noted are these: 517 nm; for Inhibition (radical scavenging inhibition): 0.2 mL DPPH (0.75 mM), compound 3 μM in ethanol, 30 min incubation in the dark. Here is the method: The antioxidant properties of the 8-((3,4-dihydroxyphenyl)diazenyl)naphthalene-1,3-disulfonic acid were studied by adding 0.2 mL DPPH (0.75 mM)) to compound 8-((3,4-dihydroxyphenyl)diazenyl)naphthalene-1,3-disulfonic acid (III) (3 μM) in ethanol. After 30 min of incubation in the dark, the absorbance was read against a blank at 517 nm. Ascorbic acid (vitamin C) was used as standard antioxidants (positive control). A blank sample was prepared by 0.2 ml of DPPH in 3 ml ethanol. A negative control sample was run using ethanol instead of the sample. The radical scavenging inhibition was calculated using the following equation: […]
The antioxidant activity for the synthesized compound is listed in Table 1, using Vitamin C as a reference.

On to `O=S(=O)(O)c1cc(S(=O)(=O)O)c2c(/N=N/c3ccc(O)c(O)c3)cccc2c1` [Product III, 8-((3,4-dihydroxyphenyl)diazenyl)naphthalene-1,3-disulfonic acid], for which the “Inhibition (radical scavenging inhibition)” value worked out at 54%. Further, the “antioxidant potential compared to vitamin C (in words)” value (DPPH in vitro test, vitamin C as positive control) was “high potential as an antioxidant compared to vitamin C”.

Consider `O=C1O[C@H]([C@@H](O)CO)C(O)=C1O` [vit c, Ascorbic acid, reference compound], for which the “Inhibition (radical scavenging inhibition)” value worked out at 74%.
